Experimental data reported in patent US20230279025A1, “KRAS G12D INHIBITORS” (Mirati Therapeutics, Inc., priority 2020, published 2023).

How the values were obtained:
KRas G12D [1] = target: T1, KRas G12D (Homo sapiens (Human), UniProt P01116, G12D); test: KRas G12D Binding Assay (TR-FRET displacement of Cy5 labelled tracer); conditions: GDP-loaded KRAS G12D (amino acids 1:169), 60 minute incubation at 22° C.
Experimental: After a 60 minute incubation at 22° C., the reaction was measured using a PerkinElmer EnVision multimode plate reader via TR-FRET dual wavelength detection, and the percent of control (POC) calculated using a ratiometric emission factor. […] The POC values were fit to a 4-parameter logistic curve and the IC50 value was determined as the concentration where the curve crosses 50 POC.
ND stands for “not determined.”
Target sequence in this assay (P01116 other isoform, or with tags, fused parts or gaps G12D): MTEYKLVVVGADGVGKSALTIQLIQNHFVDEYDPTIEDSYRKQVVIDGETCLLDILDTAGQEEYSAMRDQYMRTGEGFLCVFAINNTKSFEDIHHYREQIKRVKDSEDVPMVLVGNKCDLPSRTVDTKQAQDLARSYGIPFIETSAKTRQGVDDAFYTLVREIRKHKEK

KRas G12D [2] = target: T1, KRas G12D; test: KRas G12D Surface Plasmon Resonance (SPR) Binding Assay; conditions: Biacore T200, immobilized biotinylated KRAS protein, 1:1 binding model
Target sequence in this assay (P01116-2 other isoform, or with tags, fused parts or gaps G12D): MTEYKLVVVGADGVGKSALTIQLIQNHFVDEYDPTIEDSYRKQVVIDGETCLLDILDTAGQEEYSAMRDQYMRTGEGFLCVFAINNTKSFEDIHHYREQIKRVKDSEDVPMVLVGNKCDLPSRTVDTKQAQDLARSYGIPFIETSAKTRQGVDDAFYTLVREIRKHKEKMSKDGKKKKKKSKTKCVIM

CN1CC(COc2nc(N3C[C@H]4CC[C@@H](C3)N4)c3cnc(-c4cccc5cccc(Cl)c45)c(F)c3n2)CC1=O (stereo partly drawn) [Example 131, 4-(((4-((1R,5S)-3,8-diazabicyclo[3.2.1]octan-3-yl)-7-(8-chloronaphthalen-1-yl)-8-fluoropyrido[4,3-d]pyrimidin-2-yl)oxy)methyl)-1-methylpyrrolidin-2-one]
IC50 (KRas G12D [1]): 424 nM | Kd (KRas G12D [2]): 1550 nM

Fc1c(-c2cncc3cccc(Cl)c23)ncc2c(N3C[C@H]4CC[C@@H](C3)N4)nc(OCC34CCCN3CCC4)nc12 [Example 33, 4-((1R,5S)-3,8-diazabicyclo[3.2.1]octan-3-yl)-7-(5-chloroisoquinolin-4-yl)-8-fluoro-2-((tetrahydro-1H-pyrrolizin-7a(5H)-yl)methoxy)pyrido[4,3-d]pyrimidine bis(2,2,2-trifluoroacetate)]
IC50 (KRas G12D [1]): 21.1 nM | Kd (KRas G12D [2]): 71.7 nM

CC(C)Cn1ccnc1CCOc1nc(N2C[C@H]3CC[C@@H](C2)N3)c2cnc(-c3cc(O)cc4ccccc34)c(F)c2n1 [Example 85, 4-(4-((1R,5S)-3,8-diazabicyclo[3.2.1]octan-3-yl)-8-fluoro-2-(2-(1-isobutyl-1H-imidazol-2-yl)ethoxy)pyrido[4,3-d]pyrimidin-7-yl)naphthalen-2-ol]
IC50 (KRas G12D [1]): 454 nM | Kd (KRas G12D [2]): 148 nM

CN(C)C1CN(c2nc(N3C[C@H]4CC[C@@H](C3)N4)c3cnc(-c4cccc5cccc(Cl)c45)c(F)c3n2)C1 [Example 122, 1-(4-((1R,5S)-3,8-diazabicyclo[3.2.1]octan-3-yl)-7-(8-chloronaphthalen-1-yl)-8-fluoropyrido[4,3-d]pyrimidin-2-yl)-N,N-dimethylazetidin-3-amine]
IC50 (KRas G12D [1]): 3270 nM | Kd (KRas G12D [2]): 3420 nM

CC1CCCc2cccc(-c3ncc4c(N5CC6CCC(C5)N6)nc(OC[C@@H]5CCCN5C)nc4c3F)c21 (stereo partly drawn) [Example 133, 4-((I R,5S)-3,8-diazabicyclo[3.2.1]octan-3-yl)-8-fluoro-7-(8-methyl-5,6,7,8-tetrahydronaphthalen-1-yl)-2-(((S)-1-methylpyrrolidin-2-yl)methoxy)pyrido[4,3-d]pyrimidine]
IC50 (KRas G12D [1]): 48.8 nM | Kd (KRas G12D [2]): 113 nM

Oc1cc(-c2ncc3c(N4C[C@H]5CC[C@@H](C4)N5)nc(N4CC(O)C4)nc3c2F)c2ccccc2c1 [Example 37, 1-(4-((1R,5S)-3,8-diazabicyclo[3.2.1]octan-3-yl)-8-fluoro-7-(3-hydroxynaphthalen-1-yl)pyrido[4,3-d]pyrimidin-2-yl)azetidin-3-ol bis(2,2,2-trifluoroacetate)]
IC50 (KRas G12D [1]): 405 nM | Kd (KRas G12D [2]): 494 nM

Fc1c(-c2cccc3cccc(Cl)c23)ncc2c(N3CC4CCC(C3)N4)nc(OC[C@@]34CCCN3C[C@H](F)C4)nc12 (stereo in doubt) [Example 134, 4-((1R,5S)-3,8-diazabicyclo[3.2.1]octan-3-yl)-7-(8-chloronaphthalen-1-yl)-8-fluoro-2-((2-fluorotetrahydro-1H-pyrrolizin-7a(5H)-yl)methoxy)pyrido[4,3-d]pyrimidine]
IC50 (KRas G12D [1]): 3.7 nM | Kd (KRas G12D [2]): 6.9 nM

Oc1cc(-c2ncc3c(N4C[C@H]5CC[C@@H](C4)N5)nc(OCCc4ccccc4)nc3c2F)c2ccccc2c1 [Example 96, 4-(4-((1R,5S)-3,8-diazabicyclo[3.2.1]octan-3-yl)-8-fluoro-2-phenethoxypyrido[4,3-d]pyrimidin-7-yl)naphthalen-2-ol]
IC50 (KRas G12D [1]): 2220 nM | Kd (KRas G12D [2]): 710 nM

Nc1cccc(CCOc2nc(N3C[C@H]4CC[C@@H](C3)N4)c3cnc(-c4cc(O)cc5ccccc45)c(F)c3n2)n1 [Example 139, 4-(2-(2-(6-aminopyridin-2-yl)ethoxy)-4-((1R,5S)-3,8-diazabicyclo[3.2.1]octan-3-yl)-8-fluoropyrido[4,3-d]pyrimidin-7-yl)naphthalen-2-ol]
IC50 (KRas G12D [1]): 113 nM | Kd (KRas G12D [2]): 25.4 nM

OC[C@H](O)COc1nc(N2C[C@H]3CC[C@@H](C2)N3)c2cnc(-c3cccc4cccc(Cl)c34)c(F)c2n1 [Example 55, (S)-3-((4-((1R,5S)-3,8-diazabicyclo[3.2.1]octan-3-yl)-7-(8-chloronaphthalen-1-yl)-8-fluoropyrido[4,3-d]pyrimidin-2-yl)oxy)propane-1,2-diol]
IC50 (KRas G12D [1]): 6130 nM | Kd (KRas G12D [2]): 22400 nM

Cc1ccc2[nH]ncc2c1-c1ncc2c(N3C[C@H]4CC[C@@H](C3)N4)nc(OCCc3nccn3C)nc2c1F [Example 88, 4-((1R,5S)-3,8-diazabicyclo[3.2.1]octan-3-yl)-8-fluoro-2-(2-(1-methyl-1H-imidazol-2-yl)ethoxy)-7-(5-methyl-1H-indazol-4-yl)pyrido[4,3-d]pyrimidine]
IC50 (KRas G12D [1]): 7020 nM | Kd (KRas G12D [2]): 15600 nM

Oc1cc(-c2ncc3c(N4C[C@H]5CC[C@@H](C4)N5)nc(OC[C@@H]4CC5CCN4C5)nc3c2F)c2ccccc2c1 [Example 40, 4-(2-(((2S)-1-azabicyclo[2.2.1]heptan-2-yl)methoxy)-4-((1R,5S)-3,8-diazabicyclo[3.2.1]octan-3-yl)-8-fluoropyrido[4,3-d]pyrimidin-7-yl)naphthalen-2-ol]
IC50 (KRas G12D [1]): 4 nM | Kd (KRas G12D [2]): 1.7 nM

Cn1ccnc1CCOc1nc(N2C[C@H]3CC[C@@H](C2)N3)c2cnc(-c3cccc4cccc(Cl)c34)c(F)c2n1 [Example 114, 4-((I R,5S)-3,8-diazabicyclo[3.2.1]octan-3-yl)-7-(8-chloronaphthalen-1-yl)-8-fluoro-2-(2-(1-methyl-1H-imidazol-2-yl)ethoxy)pyrido[4,3-d]pyrimidine]
IC50 (KRas G12D [1]): 482 nM | Kd (KRas G12D [2]): 384 nM

Cc1nccn1CCOc1nc(N2CC3CCC(C2)N3)c2cnc(-c3cc(O)cc4ccccc34)c(F)c2n1 [Example 84, 4-(4-((1R,5S)-3,8-diazabicyclo[3.2.1]octan-3-yl)-8-fluoro-2-(2-(2-methyl-1H-imidazol-1-yl)ethoxy)pyrido[4,3-d]pyrimidin-7-yl)naphthalen-2-ol]
IC50 (KRas G12D [1]): 31.7 nM | Kd (KRas G12D [2]): 14.4 nM

Oc1cc(-c2ncc3c(N4C[C@H]5CC[C@@H](C4)N5)nc(OCC45CCCN4CCC5)nc3c2F)c2ccccc2c1 [Example 109, 4-(4-((1R,5S)-3,8-diazabicyclo[3.2.1]octan-3-yl)-8-fluoro-2-((tetrahydro-1H-pyrrolizin-7a(5H)-yl)methoxy)pyrido[4,3-d]pyrimidin-7-yl)naphthalen-2-ol bis(2,2,2-trifluoroacetate)]
IC50 (KRas G12D [1]): 0.5 nM | Kd (KRas G12D [2]): > 500000 nM

Cc1cccc2cccc(-c3ncc4c(N5C[C@H]6CC[C@@H](C5)N6)nc(OCCc5nccn5C)nc4c3F)c12 [Example 100, 4-((1R,5S)-3,8-diazabicyclo[3.2.1]octan-3-yl)-8-fluoro-2-(2-(1-methyl-1H-imidazol-2-yl)ethoxy)-7-(8-methylnaphthalen-1-yl)pyrido[4,3-d]pyrimidine]
IC50 (KRas G12D [1]): 1950 nM | Kd (KRas G12D [2]): 1090 nM

CCO[C@@H]1C[C@@H](COc2nc(N3C[C@H]4CC[C@@H](C3)N4)c3cnc(-c4cccc5cccc(Cl)c45)c(F)c3n2)N(C)C1 [Example 43, 4-((1R,5S)-3,8-diazabicyclo[3.2.1]octan-3-yl)-7-(8-chloronaphthalen-1-yl)-2-(((2S,4R)-4-ethoxy-1-methylpyrrolidin-2-yl)methoxy)-8-fluoropyrido[4,3-d]pyrimidine]
IC50 (KRas G12D [1]): 72.2 nM | Kd (KRas G12D [2]): 188 nM

CN1CCC[C@H]1COc1nc(N2CC3CCC(CCC#N)(C2)N3)c2cnc(-c3cc(O)cc4ccccc34)c(F)c2n1 (stereo partly drawn) [Example 157, 3-(3-(8-fluoro-7-(3-hydroxynaphthalen-1-yl)-2-(((S)-1-methylpyrrolidin-2-yl)methoxy)pyrido[4,3-d]pyrimidin-4-yl)-3,8-diazabicyclo[3.2.1]octan-1-yl)propanenitrile bis(2,2,2-trifluoroacetate)]
IC50 (KRas G12D [1]): 26.6 nM | Kd (KRas G12D [2]): 22.9 nM

Oc1cc(-c2ncc3c(N4C[C@H]5CC[C@@H](C4)N5)nc(OCCc4ccccn4)nc3c2F)c2ccccc2c1 [Example 4, 4-(4-((1R,5S)-3,8-diazabicyclo[3.2.1]octan-3-yl)-8-fluoro-2-(2-(pyridin-2-yl)ethoxy)pyrido[4,3-d]pyrimidin-7-yl)naphthalen-2-ol]
IC50 (KRas G12D [1]): 496 nM | Kd (KRas G12D [2]): 156 nM

OCC(COc1nc(N2C[C@H]3CC[C@@H](C2)N3)c2cnc(-c3cccc4cccc(Cl)c34)c(F)c2n1)c1cccnc1 (stereo partly drawn) [Example 59, 3-((4-((1R,5S)-3,8-diazabicyclo[3.2.1]octan-3-yl)-7-(8-chloronaphthalen-1-yl)-8-fluoropyrido[4,3-d]pyrimidin-2-yl)oxy)-2-(pyridin-3-yl)propan-1-ol]
IC50 (KRas G12D [1]): 946 nM | Kd (KRas G12D [2]): 1120 nM

Cn1ccc(COc2nc(N3C[C@H]4CC[C@@H](C3)N4)c3cnc(-c4cc(O)cc5ccccc45)c(F)c3n2)n1 [Example 8, 4-(4-((1R,5S)-3,8-diazabicyclo[3.2.1]octan-3-yl)-8-fluoro-2-((1-methyl-1H-pyrazol-3-yl)methoxy)pyrido[4,3-d]pyrimidin-7-yl)naphthalen-2-ol]
IC50 (KRas G12D [1]): 1520 nM | Kd (KRas G12D [2]): 2140 nM

CO[C@@H]1C[C@@H](COc2nc(N3C[C@H]4CC[C@@H](C3)N4)c3cnc(-c4cc(O)cc5ccccc45)c(F)c3n2)N(C)C1 [Example 42, 4-(4-((1R,5S)-3,8-diazabicyclo[3.2.1]octan-3-yl)-8-fluoro-2-(((2S,4R)-4-methoxy-1-methylpyrrolidin-2-yl)methoxy)pyrido[4,3-d]pyrimidin-7-yl)naphthalen-2-ol]
IC50 (KRas G12D [1]): 3.1 nM | Kd (KRas G12D [2]): 5.6 nM

Oc1cc(-c2ncc3c(N4C[C@H]5CC[C@@H](C4)N5)nc(OCCc4ncccn4)nc3c2F)c2ccccc2c1 [Example 7, 4-(4-((1R,5S)-3,8-diazabicyclo[3.2.1]octan-3-yl)-8-fluoro-2-(2-(pyrimidin-2-yl)ethoxy)pyrido[4,3-d]pyrimidin-7-yl)naphthalen-2-ol]
IC50 (KRas G12D [1]): 1870 nM | Kd (KRas G12D [2]): 464 nM
